Experimental data reported in patent publication US12152038B2, “Vasopressin receptor antagonists and products and methods related thereto” (Neumora Therapeutics, Inc., priority 2017, dated 2024).

Experiments:
[1] = Wild-type MDCK permeability and efflux assay (Papp, efflux ratio); format: in vitro ADME; settings: dog, pH 7.4, wild-type MDCK cells
Method in brief: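 Bidirectional transport measured over 1 h at 37 °C with 10 μM test compound (0.1% DMSO) in pH 7.4 HEPES-buffered HBSS across MDR1-transfected and wild-type MDCK monolayers, analysed by LC-MS/MS. Efflux ratio is B>A over A>B Papp; effective efflux ratio divides MDR1-MDCK ER by wild-type ER.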

[2] = molecular target: T1, V1a receptors (Rattus norvegicus, UniProt P30560); test: AVP induced phospho-ERK measurement in rat choroid plexus (RCP) cells; format: cell-based; settings: RCP cells stimulated with AVP, pERK1/2 to total ERK1/2 ratio
T1 construct: Rat choroid plexus (RCP) cell lines express functional V1a receptors; endogenous in cells; host or cells: rat choroid plexus (RCP) cell line, RCP P9(18)
T1 sequence (P30560 whole entry): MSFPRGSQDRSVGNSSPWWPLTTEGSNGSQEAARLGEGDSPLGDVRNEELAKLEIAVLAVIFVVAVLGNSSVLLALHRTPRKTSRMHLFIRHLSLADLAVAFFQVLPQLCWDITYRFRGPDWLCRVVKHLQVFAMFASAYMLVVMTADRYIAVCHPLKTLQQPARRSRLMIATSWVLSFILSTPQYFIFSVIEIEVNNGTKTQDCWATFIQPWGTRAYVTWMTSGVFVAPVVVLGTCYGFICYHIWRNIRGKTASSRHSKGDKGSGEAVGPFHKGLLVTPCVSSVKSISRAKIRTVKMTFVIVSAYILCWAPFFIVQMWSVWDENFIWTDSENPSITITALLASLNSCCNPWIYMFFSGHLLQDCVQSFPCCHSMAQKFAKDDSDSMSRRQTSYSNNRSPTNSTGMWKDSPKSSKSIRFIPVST
Method: Rat choroid plexus (RCP) cell lines express functional V1a receptors measured by increased calcium concentrations in response to V1a receptor agonists (Battle et al., Biochem. Biophys. Res. Comm. 2000).
RCP P9(18) cells were seeded 30K/well, in 100 μl growth medium containing 10% FBS in polystyrene 96-well plates and incubated at 37° C., 5% CO2 and incubated overnight. The following day, the growth medium was replaced with 50 μl pre-warmed HBSS containing 20 mM HEPES and the cells were incubated at 37° C., 5% CO2 for 1.5 hrs. 1 mM AVP (Sigma V9879) was freshly prepared in distilled water in a glass vial and diluted to 3× concentrations in HBSS containing 20 mM HEPES and 0.1% BSA in glass vials and kept on ice. […] Final concentrations of AVP: 10, 100 or 1000 nM. […] Cells were lysed with 25 μl 4×CST lysis buffer containing protease and phosphatase inhibitors, PMSF and SDS and then stored at −80° C., for 48 h. The lysates were thawed, centrifuged at 2000 g for 30 min at 4° C. and 40 μl supernatants assayed for pERK1/2 (Thr202/Tyr204; Thr185/Tyr187) and total ERK1/2 using MSD kit K15107D. The MSD ECL data for the lysates were corrected for no cell blanks, then phospho-protein levels expressed as a ratio to the total ERK1/2 level. The ratios were expressed as fold-change from the vehicle-treated control at each timepoint.

## CC1COc2cc(Cl)ccc2N1C(=O)N1CC2(C1)CN(c1ncccn1)C2 (single isomer, unassigned) [1-83-B, (7-chloro-3-methyl-2,3-dihydro-4H-benzo[b][1,4]oxazin-4-yl)(6-(pyrimidin-2-yl)-2,6-diazaspiro[3.3]heptan-2-yl)methanone]
[1]; A->B
  Papp A→B at 1 h, 10 μM: > 20 ×10⁻⁶ cm/s
[1]; Papp B>A/Papp A>B, read-out: ER WT (Efflux Ratio)
  efflux ratio at 1 h, 10 μM: < 1
[2]; first study
  IC50: 16 nM
[2]; second study
  IC50: 20 nM
